Assay results from ChEMBL document CHEMBL1201862, “PubChem BioAssay data set” (2004).
The source made the active and inactive calls.

Assays:
Large T antigen = Large T antigen (Simian virus 40, UniProt P03070); format: functional, Betapolyomavirus macacae;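 further: Confirmatory-stage PubChem screen for compounds that inhibit SV40 T antigen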
[1] = target: T1, Rac GTPase-activating protein 1 (Homo sapiens, UniProt Q9H0H5); assay: blockers of MgcRacGAP-driven Rac1 GTP hydrolysis – biochemical, ADP Hunter fluorescence, primary and confirmatory, confirmation (AID 624330); format: functional
T1 sequence (Q9H0H5 whole entry): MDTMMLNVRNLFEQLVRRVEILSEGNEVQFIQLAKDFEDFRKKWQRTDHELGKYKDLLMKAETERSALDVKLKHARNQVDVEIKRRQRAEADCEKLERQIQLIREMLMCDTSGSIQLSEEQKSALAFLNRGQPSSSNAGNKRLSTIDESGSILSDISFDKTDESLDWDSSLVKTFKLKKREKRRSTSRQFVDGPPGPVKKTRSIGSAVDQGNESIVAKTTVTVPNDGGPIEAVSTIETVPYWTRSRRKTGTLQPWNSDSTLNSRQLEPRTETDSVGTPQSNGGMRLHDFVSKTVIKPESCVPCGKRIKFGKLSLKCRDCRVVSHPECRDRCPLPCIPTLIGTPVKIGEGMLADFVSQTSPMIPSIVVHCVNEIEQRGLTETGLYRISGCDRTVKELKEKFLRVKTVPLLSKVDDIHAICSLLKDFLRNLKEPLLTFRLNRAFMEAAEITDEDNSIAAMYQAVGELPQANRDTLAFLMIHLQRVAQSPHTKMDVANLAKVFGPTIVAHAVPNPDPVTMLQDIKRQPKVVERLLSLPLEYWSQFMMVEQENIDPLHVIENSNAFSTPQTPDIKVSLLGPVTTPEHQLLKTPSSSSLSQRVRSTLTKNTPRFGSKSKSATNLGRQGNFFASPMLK

[2] = target: DNA dC->dU-editing enzyme APOBEC-3G (Homo sapiens, UniProt Q9HC16); assay: Dose Response confirmation of small molecule APOBEC3G DNA Deaminase Inhibitors via a fluorescence-based single-stranded DNA deaminase assay. [Related pubchem assays (depositor defined):AID493012, AID493028]; format: functional
[3] = HEK-293T cell viability reduction – luminescence, B-cell screen hits, cytotoxicity control for BCR NF-kB inhibitor project, dose response (AID 489021); format: functional, cell-based;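 further: HEK-293T cells carrying an NF-kB luciferase reporter; cells exposed to compound for about 14 hours before viability readout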
cells [4] = format: functional, cell-based
cells [5] = format: functional, cell-based; remark: listed apart in the source
[6] = tested on: Streptococcus sp. 'group A'; assay: Streptococcus pyogenes SK(-)GAS viability under kanamycin – luminescence, BacTiterGlo, confirmation, counter-screen for streptokinase expression inhibitor project, dose response (AID 1900); format: functional, organism-based
Protein skinhead-1 = target: T2, Protein skinhead-1 (Caenorhabditis elegans, UniProt P34707); format: functional
T2 sequence (P34707 whole entry): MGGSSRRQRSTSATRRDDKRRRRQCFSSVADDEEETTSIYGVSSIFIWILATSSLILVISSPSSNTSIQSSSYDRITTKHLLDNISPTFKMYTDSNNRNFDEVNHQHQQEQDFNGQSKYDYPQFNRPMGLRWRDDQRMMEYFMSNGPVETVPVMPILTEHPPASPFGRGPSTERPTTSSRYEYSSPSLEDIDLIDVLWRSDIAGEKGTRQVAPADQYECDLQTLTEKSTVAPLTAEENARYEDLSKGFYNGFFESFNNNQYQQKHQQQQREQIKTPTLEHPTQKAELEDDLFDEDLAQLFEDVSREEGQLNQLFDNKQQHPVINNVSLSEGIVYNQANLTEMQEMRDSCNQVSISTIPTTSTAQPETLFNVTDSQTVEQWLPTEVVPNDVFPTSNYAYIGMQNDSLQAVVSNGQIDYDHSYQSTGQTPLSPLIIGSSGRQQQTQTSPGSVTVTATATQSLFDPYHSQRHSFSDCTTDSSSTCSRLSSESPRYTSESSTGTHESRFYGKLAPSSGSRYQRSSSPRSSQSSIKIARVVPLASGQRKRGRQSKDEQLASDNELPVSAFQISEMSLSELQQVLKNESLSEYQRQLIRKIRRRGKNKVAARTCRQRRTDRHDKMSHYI

Streptokinase A = target: T3, Streptokinase A (Streptococcus pyogenes serotype M1, UniProt P10520); assay: viability-normalized secreted streptokinase activity reduction – plasminogen activation absorbance, OD405, dose response (AID 1914); format: functional, Streptococcus pyogenes M1 GAS;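 further: secreted streptokinase activity via plasminogen activation per viability signal from cell pellet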
T3 sequence (P10520 whole entry): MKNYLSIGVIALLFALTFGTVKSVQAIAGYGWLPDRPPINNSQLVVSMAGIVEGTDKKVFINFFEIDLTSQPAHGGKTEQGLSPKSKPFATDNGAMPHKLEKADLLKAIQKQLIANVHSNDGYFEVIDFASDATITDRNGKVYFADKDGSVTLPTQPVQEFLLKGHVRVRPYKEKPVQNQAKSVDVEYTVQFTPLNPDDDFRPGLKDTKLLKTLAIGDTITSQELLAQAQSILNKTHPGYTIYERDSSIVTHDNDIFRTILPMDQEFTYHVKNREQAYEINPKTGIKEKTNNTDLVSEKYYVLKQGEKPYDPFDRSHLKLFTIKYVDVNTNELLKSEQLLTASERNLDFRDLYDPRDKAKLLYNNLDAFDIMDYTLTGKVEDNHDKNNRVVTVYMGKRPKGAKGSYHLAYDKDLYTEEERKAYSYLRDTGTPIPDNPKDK

Streptococcus = assay: GAS UMAA2166 growth inhibition – luminescence, BacTiterGlo, counter-screen for streptokinase expression inhibitor project, dose response (AID 1915); format: functional, organism-based;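 further: potency for reduction of bacterial viability or growth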
[7] = blockers of bursicon-stimulated LGR2 cAMP reporter – cell-based, HEK293, CRE-luciferase reporter, cherry pick, set 2, dose response (AID 743343); format: functional;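 further: transfected cells were stimulated with diluted bursicon conditioned medium after compound addition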
[8] = blockade of melanocortin 4 receptor signaling – cell-based, plate reader, cherry pick, counter-screen for LGR2 antagonist project, dose response (AID 743444); format: functional;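 further: transfected HEK 293 cells stimulated with alpha-MSH peptide; potency of inhibitors of the alpha-MSH evoked signal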
[9] = toxicity toward HepG2 liver cells – cell-based, plate reader, cherry-pick, antagonist series, cytotoxicity control, dose response (AID 743416); format: functional
Cytochrome P450 2C9 = Cytochrome P450 2C9 (Homo sapiens, UniProt P11712)
Cytochrome P450 2D6 = Cytochrome P450 2D6 (Homo sapiens, UniProt P10635);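 further: CYP2D6 member of a cytochrome P450 panel assay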
[10] = target: Luciferin 4-monooxygenase (Photinus pyralis, UniProt P08659); assay: inhibition of purified Photinus pyralis luciferase – biochemical, luminescence, dose response (AID 1891)
[11] = Luminescence Cell-Based Dose Confirmation HTS to Identify Inhibitors of Platelet Dense Granule Release. [Related pubchem assays: 1663 (Primary HTS), 1678 (Summary of Project)]; format: functional
[12] = Trypanosoma cruzi growth suppression in host cells – NIH3T3 host cells, beta-gal luminescence, confirmation (AID 2044); format: functional, cell-based;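 further: intracellular parasites grown in NIH/3T3 mouse fibroblasts as host cells; luminescent beta-galactosidase reporter signal from transgenic T. cruzi replicating inside host cells; inhibitors lower the luminescence signal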
[13] = NIH3T3 cell viability loss – ATP luminescence, mouse fibroblasts, counter-screen, dose response (AID 2010); format: functional, cell-based;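 further: cells exposed to compound for about 90 hours before reading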
[14] = target: FAD-linked sulfhydryl oxidase ALR (Homo sapiens, UniProt P55789); assay: ALR-catalysed DTT oxidation blockers – biochemical, H2O2 detection, luminescence, cherry-pick, dose response (AID 493248)
[15] = target: T4, Endoribonuclease toxin MazF (Escherichia coli K-12, UniProt P0AE70); assay: substrate-only fluorescence increase artefacts – biochemical, single-stranded RNase substrate, counter-screen for MazEF activator project, dose response (AID 588502); format: functional
T4 sequence (P0AE70 whole entry): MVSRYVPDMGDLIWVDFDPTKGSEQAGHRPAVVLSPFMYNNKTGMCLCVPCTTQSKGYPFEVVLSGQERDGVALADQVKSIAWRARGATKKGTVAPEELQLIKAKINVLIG

[16] = target: T4, Endoribonuclease toxin MazF; assay: activation of MazEF endoribonuclease cleavage – biochemical, fluorescence, single-stranded RNA substrate, uHTS hits, dose response (AID 588481); format: functional
[17] = viability of uninfected HEp-2 cells – cell-based, HTS, cytotoxicity control for RSV inhibitor project, dose response (AID 2410); format: functional; details: human respiratory syncytial virus
[18] = target: T5, Microphthalmia-associated transcription factor (Homo sapiens, UniProt O75030); assay: reducers of TRPM1 reporter luminescence, concentration series – cell-based, SK-MEL-5, cherry-picked, set 3, MITF inhibitor project, dose response (AID 493073); format: functional;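 further: SK-MEL-5 melanoma cells with luciferase driven by the MITF target TRPM1 promoter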
T5 sequence (O75030 whole entry): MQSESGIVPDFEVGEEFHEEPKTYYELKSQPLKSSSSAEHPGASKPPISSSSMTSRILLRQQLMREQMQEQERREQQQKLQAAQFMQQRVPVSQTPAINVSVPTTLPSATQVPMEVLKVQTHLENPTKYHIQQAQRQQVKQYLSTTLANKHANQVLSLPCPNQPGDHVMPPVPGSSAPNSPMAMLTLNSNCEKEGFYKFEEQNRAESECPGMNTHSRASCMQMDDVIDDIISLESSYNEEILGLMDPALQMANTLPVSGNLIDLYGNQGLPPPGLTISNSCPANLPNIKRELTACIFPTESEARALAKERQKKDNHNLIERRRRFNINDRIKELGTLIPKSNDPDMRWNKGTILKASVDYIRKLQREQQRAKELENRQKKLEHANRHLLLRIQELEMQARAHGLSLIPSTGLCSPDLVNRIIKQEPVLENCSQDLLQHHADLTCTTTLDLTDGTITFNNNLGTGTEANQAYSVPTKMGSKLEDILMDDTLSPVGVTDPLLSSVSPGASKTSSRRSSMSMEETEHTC

DNA dC->dU-editing enzyme APOBEC-3G, sequence (Q9HC16 whole entry): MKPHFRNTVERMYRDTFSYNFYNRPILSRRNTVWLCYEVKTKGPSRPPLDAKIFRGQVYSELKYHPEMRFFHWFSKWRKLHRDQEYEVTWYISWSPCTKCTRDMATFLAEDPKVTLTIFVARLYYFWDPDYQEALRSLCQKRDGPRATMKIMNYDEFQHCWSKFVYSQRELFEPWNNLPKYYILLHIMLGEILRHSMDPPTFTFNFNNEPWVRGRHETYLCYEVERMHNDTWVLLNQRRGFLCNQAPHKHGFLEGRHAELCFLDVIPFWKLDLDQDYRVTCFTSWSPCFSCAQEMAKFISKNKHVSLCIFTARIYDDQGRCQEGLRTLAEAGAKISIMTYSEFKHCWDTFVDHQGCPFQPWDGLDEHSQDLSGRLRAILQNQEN
Large T antigen, sequence (P03070 whole entry): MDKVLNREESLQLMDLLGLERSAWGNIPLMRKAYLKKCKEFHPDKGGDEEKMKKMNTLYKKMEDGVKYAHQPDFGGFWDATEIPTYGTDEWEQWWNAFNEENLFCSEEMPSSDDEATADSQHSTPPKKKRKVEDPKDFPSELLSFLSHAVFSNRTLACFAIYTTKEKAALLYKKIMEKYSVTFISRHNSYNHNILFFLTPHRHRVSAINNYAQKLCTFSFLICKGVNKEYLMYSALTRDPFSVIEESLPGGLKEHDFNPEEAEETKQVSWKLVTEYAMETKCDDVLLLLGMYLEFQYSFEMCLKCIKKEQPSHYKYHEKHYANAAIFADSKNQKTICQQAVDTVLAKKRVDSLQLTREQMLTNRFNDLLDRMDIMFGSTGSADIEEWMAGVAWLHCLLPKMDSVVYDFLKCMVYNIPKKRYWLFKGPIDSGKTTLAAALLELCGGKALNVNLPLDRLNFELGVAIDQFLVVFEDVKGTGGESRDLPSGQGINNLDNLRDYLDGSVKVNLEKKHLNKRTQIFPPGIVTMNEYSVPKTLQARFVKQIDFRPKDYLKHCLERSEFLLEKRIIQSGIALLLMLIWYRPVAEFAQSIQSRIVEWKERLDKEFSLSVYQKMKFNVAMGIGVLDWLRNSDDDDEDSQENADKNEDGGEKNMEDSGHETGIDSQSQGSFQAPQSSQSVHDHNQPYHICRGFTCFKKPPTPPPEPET
Cytochrome P450 2D6, sequence (P10635 whole entry): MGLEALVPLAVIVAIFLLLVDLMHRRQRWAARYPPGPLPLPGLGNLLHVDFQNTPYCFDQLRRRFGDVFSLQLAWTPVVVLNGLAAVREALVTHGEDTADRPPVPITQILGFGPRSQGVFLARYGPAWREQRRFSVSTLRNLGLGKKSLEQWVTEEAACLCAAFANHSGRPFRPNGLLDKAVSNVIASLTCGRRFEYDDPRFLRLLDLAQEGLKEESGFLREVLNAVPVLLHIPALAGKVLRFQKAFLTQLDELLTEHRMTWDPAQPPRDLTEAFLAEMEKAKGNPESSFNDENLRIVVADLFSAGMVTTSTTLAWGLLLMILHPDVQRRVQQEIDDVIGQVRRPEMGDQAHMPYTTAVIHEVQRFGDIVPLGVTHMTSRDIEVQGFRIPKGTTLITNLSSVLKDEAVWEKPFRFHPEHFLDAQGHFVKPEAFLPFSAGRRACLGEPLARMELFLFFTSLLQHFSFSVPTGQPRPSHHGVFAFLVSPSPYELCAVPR
FAD-linked sulfhydryl oxidase ALR, sequence (P55789 whole entry): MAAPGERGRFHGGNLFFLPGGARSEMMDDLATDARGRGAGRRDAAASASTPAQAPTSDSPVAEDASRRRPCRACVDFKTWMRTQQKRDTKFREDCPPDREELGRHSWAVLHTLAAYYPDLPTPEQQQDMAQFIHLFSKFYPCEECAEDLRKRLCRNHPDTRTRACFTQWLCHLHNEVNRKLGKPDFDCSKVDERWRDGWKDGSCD
Luciferin 4-monooxygenase, sequence (P08659 whole entry): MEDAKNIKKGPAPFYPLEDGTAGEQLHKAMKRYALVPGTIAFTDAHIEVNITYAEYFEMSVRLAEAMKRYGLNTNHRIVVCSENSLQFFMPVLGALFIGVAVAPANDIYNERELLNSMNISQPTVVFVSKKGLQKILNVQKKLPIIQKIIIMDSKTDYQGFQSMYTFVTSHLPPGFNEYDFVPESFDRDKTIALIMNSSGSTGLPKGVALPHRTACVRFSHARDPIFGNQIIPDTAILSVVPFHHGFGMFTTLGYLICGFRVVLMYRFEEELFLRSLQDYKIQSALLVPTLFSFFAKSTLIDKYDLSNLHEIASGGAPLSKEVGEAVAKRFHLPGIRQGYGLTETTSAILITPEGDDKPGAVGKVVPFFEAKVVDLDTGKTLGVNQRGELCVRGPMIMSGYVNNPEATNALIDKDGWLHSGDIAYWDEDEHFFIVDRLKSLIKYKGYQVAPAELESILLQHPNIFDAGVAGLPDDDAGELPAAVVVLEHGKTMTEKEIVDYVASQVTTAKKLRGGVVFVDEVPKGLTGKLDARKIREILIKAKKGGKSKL
Cytochrome P450 2C9, sequence (P11712 whole entry): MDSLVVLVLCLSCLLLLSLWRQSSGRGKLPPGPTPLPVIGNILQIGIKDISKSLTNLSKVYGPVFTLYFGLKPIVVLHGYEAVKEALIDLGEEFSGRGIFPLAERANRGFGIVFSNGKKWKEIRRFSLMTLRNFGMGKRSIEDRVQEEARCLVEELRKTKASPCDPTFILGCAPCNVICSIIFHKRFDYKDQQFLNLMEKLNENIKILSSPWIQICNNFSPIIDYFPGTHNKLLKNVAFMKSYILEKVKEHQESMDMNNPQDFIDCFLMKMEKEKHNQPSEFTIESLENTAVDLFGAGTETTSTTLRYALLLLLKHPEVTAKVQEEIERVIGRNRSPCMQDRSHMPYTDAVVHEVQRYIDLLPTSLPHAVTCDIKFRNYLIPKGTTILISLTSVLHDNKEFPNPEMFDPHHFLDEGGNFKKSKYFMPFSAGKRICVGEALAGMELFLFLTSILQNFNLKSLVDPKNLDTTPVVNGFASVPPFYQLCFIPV

COc1cc(/C=N/NC(=O)c2ccccc2)ccc1O
IC50 (Large T antigen): 10.5 µM (active)
IC50 [1]: 29.9 µM (active)

C[C@@H]1O[C@@H](OC2C(O)C(OCCc3ccc(O)c(O)c3)OC(CO)C2OC(=O)/C=C/c2ccc(O)c(O)c2)[C@H](O)[C@H](O)[C@H]1O (stereo partly drawn)
IC50 (Large T antigen): 3.26 µM (active)

Nc1ccccc1SSc1ccccc1N
IC50 [1]: 86.1 µM (active)
IC50 [2]: 25.8 µM (active)

CCn1c(CN2CCN(c3ccc(Cl)cc3)CC2)nc2ccccc21
IC50 [3]: > 80 µM (inactive)

CCC1CCc2sc(C(=O)O)cc2C1 (stereo not drawn)
EC50 (cells [4]): > 350 µM (not active)
EC50 (cells [5]): > 350 µM (not active)

O=C1/C(=C/c2cccs2)CCC/C1=C\c1cccs1
EC50 [6]: > 150 µM (not active)
IC50 (Protein skinhead-1): 95.2 µM (inactive)
EC50 (Streptokinase A): 68.5 µM (active)
EC50 (Streptococcus): > 150 µM (not active)

COCCCNC(=O)COc1ccc(-c2nccc(-c3ccccn3)n2)cc1
IC50 [3]: > 80 µM (inactive)

COc1cccc(-c2cc(C(=O)Nc3cccc(O)c3)no2)c1
AC50 [7]: 7.52 µM (active)
AC50 [8]: 8.73 µM (active)
AC50 [9]: 42.3 µM (active)
AC50 (Cytochrome P450 2C9): inconclusive
AC50 (Cytochrome P450 2D6): 22.4 µM (inconclusive)

CC(C)c1nnc(NC(=O)CCC(=O)NC2CC2)s1
EC50 (cells [4]): > 350 µM (not active)
EC50 [10]: > 112 µM (not active)
EC50 (cells [5]): > 350 µM (not active)
EC50 [11]: > 112 µM (not active)

CN(C)S(=O)(=O)c1ccc(NC(=O)N2CCN(c3ccccc3)CC2)cc1
IC50 [3]: > 80 µM (inactive)

C=C(C)CNC(=O)c1ccc2nc(Cc3ccc(OC)cc3)oc2c1
EC50 (cells [4]): 15.1 µM (active)
EC50 (cells [5]): > 350 µM (not active)

COc1cc(/C=N/Nc2nc(Nc3ccccc3)nc(N3CCOCC3)n2)ccc1OC(=O)c1ccco1
IC50 [3]: > 80 µM (inactive)
EC50 [12]: 0.895 µM (active)
EC50 [13]: 6.73 µM (active)

COc1ccc2c(C)cc3n[nH]c(=S)n3c2c1
IC50 [1]: 20.6 µM (active)
IC50 [2]: > 100 µM (inactive)

FC(F)(F)c1ccc(CSc2ccccn2)cc1
EC50 (cells [4]): 70 µM (active)
EC50 (cells [5]): > 350 µM (not active)

COc1cc(/C=c2\sc3n(c2=O)CCCN=3)ccc1O
IC50 (Large T antigen): 16.2 µM (active)
AC50 [14]: 4.19 µM (active)
IC50 [1]: 15.6 µM (active)

CCN(CC)S(=O)(=O)c1ccc(C(=O)/C=C/c2ccc(-c3ccc([N+](=O)[O-])cc3)o2)cc1
EC50 [15]: > 99 µM (inactive)
EC50 [16]: > 99 µM (inactive)

COC(=O)Cc1sc(-c2ccccn2)nc1-c1ccccc1
IC50 [2]: 41.1 µM (active)

COCCCN=C(S)NN=C(S)Nc1ccc(F)cc1F
IC50 [2]: 10.1 µM (active)

c1ccc(COc2ccc(OCCCN3CCCC3)cc2)cc1
AC50 [7]: 0.751 µM (active)
AC50 [8]: 1.19 µM (active)
AC50 [9]: > 52 µM (inactive)

Cc1cc2ccccn2c1C(=O)c1ccc(NN)c([N+](=O)[O-])c1
IC50 [3]: > 80 µM (inactive)

O=C(Nc1ccccc1)c1ccc(NCCc2ccccc2)c([N+](=O)[O-])c1
EC50 [15]: 84.3 µM (inactive)
EC50 [16]: > 99 µM (inactive)

Cc1cc(O)nc2c(C)cc(S(=O)(=O)N3CCCCC3)cc12
IC50 [3]: > 80 µM (inactive)

NS(=O)(=O)c1ccc(N/N=C/c2ccc[nH]2)c([N+](=O)[O-])c1
IC50 (Large T antigen): 65.5 µM (active)

O=C(CCCCl)NC1=NN(c2ccccc2)C(=O)C1
IC50 (Large T antigen): 30.9 µM (active)

O=[N+]([O-])c1ccc(N/N=C/c2ccccc2)c(F)c1
EC50 [15]: 27.2 µM (inactive)
EC50 [16]: > 99 µM (inactive)
CC50 [17]: > 50 µM (active)

O=C1NC(=O)N(Cc2ccccc2Cl)C(=O)/C1=C/c1cccs1
AC50 [18]: 29.7 µM (active)

CCOC(=O)Cc1nn(CC)c(=O)c2ccccc12
EC50 (cells [4]): > 350 µM (not active)
EC50 (cells [5]): > 350 µM (not active)

CN1CCN(c2ccc(NC(=O)c3ccc([N+](=O)[O-])o3)cc2Cl)CC1
AC50 [18]: 9.02 µM (active)

CCOC(=O)/C(C#N)=N\Nc1cc(Cl)ccc1OC
EC50 [15]: 44.1 µM (inactive)
EC50 [16]: > 99 µM (inactive)

CC1=CC2=C(C=O)C(=O)C(C)(O)C(O)C2=CO1 (stereo not drawn)
EC50 [15]: > 99 µM (inactive)
EC50 [16]: > 99 µM (inactive)

Cc1nnc2c3ccccc3c(-c3ccccc3)nn12
IC50 [3]: > 80 µM (inactive)

Nc1nnc(S)n1-c1ccc(Cl)cc1
IC50 [2]: 23.7 µM (active)

CC1(C)O[C@@H]2[C@H](O1)[C@@H](COS(=O)(=O)O)O[C@H]2n1c(S)nc2c(O)nc(N)nc21
IC50 [1]: 53.7 µM (active)
IC50 [2]: 34.8 µM (active)
